biological target: T1, AiiK (Kurthia huakuii, UniProt Z9B3F0ZFT1); assay: HPLC of remaining AHL at […] nm, Michaelis-Menten fit; format: biochemical; details: 10 mM PBS pH 7.4, 25 °C, 10 min, 4 μg/mL enzyme, 25–150 μM substrate; unit given as mM^−1 in the source; unit of the source corrected
T1 construct: primer-encoded N-terminus MCQNKKLY
T1 sequence (Z9B3F0ZFT1 1-278 limits assumed): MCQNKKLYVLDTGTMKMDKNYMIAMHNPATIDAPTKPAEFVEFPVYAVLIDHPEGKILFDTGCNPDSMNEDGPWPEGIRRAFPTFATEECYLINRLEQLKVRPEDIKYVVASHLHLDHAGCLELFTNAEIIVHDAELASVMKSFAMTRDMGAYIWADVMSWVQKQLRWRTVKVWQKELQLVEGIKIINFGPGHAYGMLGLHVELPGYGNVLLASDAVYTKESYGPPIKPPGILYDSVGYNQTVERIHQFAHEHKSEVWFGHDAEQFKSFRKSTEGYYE

Row | Compound | Mean ± SD / Km(mM^-1)
1 | CCCC(=O)CC(=O)N[C@H]1CCOC1=O [3-Oxo-C6-HSL] | 0.066 ± 0.02 mM
2 | CCCCCC(=O)N[C@H]1CCOC1=O [C6-HSL] | 0.204 ± 0.031 mM
3 | CCCCCCCCCC(=O)N[C@H]1CCOC1=O [C10-HSL] | 0.315 ± 0.065 mM
4 | CCCCCCCCCCCCCC(=O)N[C@H]1CCOC1=O [C14-HSL] | 0.036 ± 0.004 mM

Source: publication PMC5902575, “Characterization of AiiK, an AHL lactonase, from Kurthia huakui LAM0618^T and its application in quorum quenching on Pseudomonas aeruginosa PAO1” (Scientific Reports, 2018)
